In patent US7135465B2, “Sustained release beadlets containing stavudine” (Bristol-Myers Squibb Company, priority 2000, dated 2006):

Experiment: Gamma scintigraphy studies of stavudine absorption
Assay type: in vivo
Experimental: It has been found in gamma scintigraphy studies that stavudine is well absorbed in the upper intestine. The absorption in the colon is approximately one half that of the small intestine. The optimal formulation would be designed to release approximately 40% of the stavudine in four hours and the remainder over the next twelve to twenty hours. A 100 mg. extended dosage form of stavudine, therefore, would be designed to have the same bioavailability as the commercial 40 mg. immediate release capsules given twice daily. […] A problem in the formulation of a suitable extended dosage form of stavudine is its sensitivity to moisture that causes it to hydrolyze, primarily into thymine. This moisture sensitivity has not been a problem with the commercial non-sustained release dosage form of stavudine because it is a dry granulation that is filled into hard gelatin capsules. However, sustained release dosage forms conventionally require different compounding procedures typically including a granulation step involving an aqueous medium. […] In accordance with the present invention, a method has been found whereby stavudine can be successfully compounded into an extended release formulation utilizing conventional techniques without appreciable loss of potency due to hydrolysis.

absorption in the colon relative to that of the small intestine: approximately one half
absorption in the upper intestine: well absorbed
SMILES: Cc1cn([C@H]2C=C[C@@H](CO)O2)c(=O)[nH]c1=O [stavudine, 3′-deoxy-2′,3′-didehydrothymidine]
